Converted amounts (≈) assume the structure as drawn. The source made the active and inactive calls. The calls are words filed in the database; no cut-off is given here.

Format in all cases: functional
In test [1] the test system is Penicillium. Kind of test: Antifungal activity against Penicillium after 72 to 96 hrs by broth dilution method. (In general: Broth dilution looks for growth in wells or tubes with falling amounts of substance.)
Test [2] concerns Pseudomonas aeruginosa. Kind of test: Antibacterial activity against Pseudomonas aeruginosa.
The subject of test [3] is Penicillium. Nature of the test: Antifungal activity against Penicillium.
In test [4] the test system is Aspergillus flavus. Kind of test: Antifungal activity against Aspergillus flavus.
Test [5] relates to Fusarium. Kind of test: Antifungal activity against Fusarium after 72 to 96 hrs by broth dilution method.
The subject of test [6] is Aspergillus niger. Nature of the test: Antifungal activity against Aspergillus niger.
Test [7] has as its system Escherichia coli. Nature of the test: Antibacterial activity against Escherichia coli after 24 hrs by broth dilution method.
Test [8] has as its system Bacillus subtilis. Kind of test: Antibacterial activity against Bacillus subtilis.
Test [9] deals with Rhizopus. Nature of the test: Antifungal activity against Rhizopus after 72 to 96 hrs by broth dilution method.
For test [10], the system named is Rhizopus. Nature of the test: Antifungal activity against Rhizopus.
Test [11] has as its system Bacillus subtilis. Kind of test: Antibacterial activity against Bacillus subtilis after 24 hrs by broth dilution method.
Test [12] relates to Enterococcus faecalis. Nature of the test: Antibacterial activity against Streptococcus faecalis.
The test system of test [13] is Klebsiella pneumoniae. Nature of the test: Antibacterial activity against Klebsiella pneumoniae after 24 hrs by broth dilution method.
Test [14] deals with Aspergillus niger. Kind of test: Antifungal activity against Aspergillus niger after 72 to 96 hrs by broth dilution method.
For test [15], the system named is Enterococcus faecalis. Nature of the test: Antibacterial activity against Streptococcus faecalis after 24 hrs by broth dilution method.
Test [16] has as its system Pseudomonas aeruginosa. Nature of the test: Antibacterial activity against Pseudomonas aeruginosa after 24 hrs by broth dilution method.
In test [17] the test system is Escherichia coli. Kind of test: Antibacterial activity against Escherichia coli.
Test [18] concerns Fusarium. Kind of test: Antifungal activity against Fusarium.
Test [19] has as its system Aspergillus flavus. Nature of the test: Antifungal activity against Aspergillus flavus after 72 to 96 hrs by broth dilution method.
The test system of test [20] is Klebsiella pneumoniae. Nature of the test: Antibacterial activity against Klebsiella pneumoniae.

On to `CC(C)C1/C(=N/OC(=O)Oc2ccccc2)CC(c2ccccc2)N(C)C1c1ccccc1` (stereo not given), for which the minimum inhibitory concentration (MIC) with Penicillium [1] came out at 25 µg/mL (≈ 56.5 µM); against Fusarium [5], 25 µg/mL (≈ 56.5 µM); against Escherichia coli [7] it was 25 µg/mL (≈ 56.5 µM); with Rhizopus [9], 25 µg/mL (≈ 56.5 µM); in the test with Bacillus subtilis [11], 25 µg/mL (≈ 56.5 µM); in the test on Klebsiella pneumoniae [13] it was 6.25 µg/mL (≈ 14.1 µM). Besides, the MIC in the test with Aspergillus niger [14] was 50 µg/mL (≈ 113 µM); in the test with Enterococcus faecalis [15], 25 µg/mL (≈ 56.5 µM); in the test on Pseudomonas aeruginosa [16], 6.25 µg/mL (≈ 14.1 µM); in the test with Aspergillus flavus [19], 50 µg/mL (≈ 113 µM). For the same molecule, the “inhibition zone (IZ)” value in the test with Pseudomonas aeruginosa [2] was 22 mm; with Penicillium [3] it was 17 mm; in the test on Aspergillus flavus [4] it was 17 mm; in the test with Aspergillus niger [6] it was 12 mm; in the test with Bacillus subtilis [8], 17 mm; in the test on Rhizopus [10], 17 mm. The “inhibition zone (IZ)” value in the test on Enterococcus faecalis [12] is on record as 17 mm; in the test with Escherichia coli [17] it was 17 mm; with Fusarium [18], 17 mm; in the test on Klebsiella pneumoniae [20] it was 22 mm.

As for `CC(Cl)OC(=O)O/N=C1\CC(c2ccccc2)N(C)C(c2ccccc2)C1C` (stereo not given), the minimal inhibitory concentration (MIC) in the test with Penicillium [1] worked out at 25 µg/mL (≈ 62.4 µM); in the test on Fusarium [5], 25 µg/mL (≈ 62.4 µM); with Escherichia coli [7], 12.5 µg/mL (≈ 31.2 µM); against Rhizopus [9], 25 µg/mL (≈ 62.4 µM); with Bacillus subtilis [11], 50 µg/mL (≈ 125 µM); in the test on Klebsiella pneumoniae [13] it was 12.5 µg/mL (≈ 31.2 µM). The MIC against Aspergillus niger [14] came out at 50 µg/mL (≈ 125 µM); in the test on Enterococcus faecalis [15] it was 12.5 µg/mL (≈ 31.2 µM); with Pseudomonas aeruginosa [16], 25 µg/mL (≈ 62.4 µM); against Aspergillus flavus [19] it was 50 µg/mL (≈ 125 µM). Also, the “inhibition zone (IZ)” value came to 22 mm in the test with Pseudomonas aeruginosa [2]; 17 mm in the test with Penicillium [3]; 17 mm in the test on Aspergillus flavus [4]; 17 mm with Aspergillus niger [6]; 17 mm in the test on Bacillus subtilis [8]; 17 mm in the test with Rhizopus [10]. In addition, the “inhibition zone (IZ)” value in the test with Enterococcus faecalis [12] was 22 mm; in the test on Escherichia coli [17], 22 mm; in the test on Fusarium [18], 17 mm; in the test with Klebsiella pneumoniae [20], 22 mm.

`C[C@@H]1[C@H](O)[C@@H](C)/C=C/C=C/C=C/C=C/C=C/C=C/C=C/[C@H](O[C@@H]2O[C@H](C)[C@@H](O)[C@H](N)[C@@H]2O)C[C@@H]2O[C@](O)(C[C@@H](O)C[C@@H](O)[C@H](O)CC[C@@H](O)C[C@@H](O)CC(=O)O[C@H]1C)C[C@H](O)[C@H]2C(=O)O` [AMPHOTERICIN B]: the minimum inhibitory concentration (MIC) stood at 25 µg/mL (≈ 27.1 µM) in the test on Penicillium [1]; 25 µg/mL (≈ 27.1 µM) in the test on Fusarium [5]; 25 µg/mL (≈ 27.1 µM) against Rhizopus [9]; 50 µg/mL (≈ 54.1 µM) against Aspergillus niger [14]; 50 µg/mL (≈ 54.1 µM) against Aspergillus flavus [19]. In addition, the “inhibition zone (IZ)” value with Penicillium [3] amounted to 22 mm; in the test with Aspergillus flavus [4], 22 mm; in the test on Aspergillus niger [6] it was 21 mm; in the test with Rhizopus [10] it was 21 mm; in the test with Fusarium [18], 22 mm.

Turning to `CCOC(=O)O/N=C1\CC(c2ccccc2)N(C)C(c2ccccc2)C1C` (stereo not given), the MIC worked out at 200 µg/mL (≈ 546 µM) against Penicillium [1]; 200 µg/mL (≈ 546 µM) in the test with Fusarium [5]; 50 µg/mL (≈ 136 µM) in the test with Escherichia coli [7]; 200 µg/mL (≈ 546 µM) in the test on Rhizopus [9]; 50 µg/mL (≈ 136 µM) in the test on Bacillus subtilis [11]; 200 µg/mL (≈ 546 µM) in the test with Klebsiella pneumoniae [13]. Further, the minimum inhibitory concentration (MIC) turned out to be 200 µg/mL (≈ 546 µM) with Aspergillus niger [14], 200 µg/mL (≈ 546 µM) against Enterococcus faecalis [15], 200 µg/mL (≈ 546 µM) in the test with Pseudomonas aeruginosa [16] and 100 µg/mL (≈ 273 µM) in the test on Aspergillus flavus [19]. The “inhibition zone (IZ)” value in the test on Pseudomonas aeruginosa [2], in the test on Penicillium [3], with Aspergillus niger [6], with Rhizopus [10], in the test on Enterococcus faecalis [12] and with Fusarium [18] was “inactive” in each case. For the same molecule, the “inhibition zone (IZ)” value with Klebsiella pneumoniae [20] is “inactive”. The “inhibition zone (IZ)” value in the test with Aspergillus flavus [4], in the test with Bacillus subtilis [8] and in the test with Escherichia coli [17] was 12 mm throughout.

Turning to `CCC1/C(=N/OC(=O)OC)CC(c2ccccc2)N(C)C1c1ccccc1` (stereo not given), the MIC against Penicillium [1] worked out at 200 µg/mL (≈ 546 µM); in the test on Fusarium [5] it was 200 µg/mL (≈ 546 µM); in the test on Escherichia coli [7], 25 µg/mL (≈ 68.2 µM); against Rhizopus [9], 100 µg/mL (≈ 273 µM); in the test with Bacillus subtilis [11], 25 µg/mL (≈ 68.2 µM); with Klebsiella pneumoniae [13], 200 µg/mL (≈ 546 µM). In addition, the minimal inhibitory concentration (MIC) is 200 µg/mL (≈ 546 µM) in the test with Aspergillus niger [14], 100 µg/mL (≈ 273 µM) against Enterococcus faecalis [15], 200 µg/mL (≈ 546 µM) against Pseudomonas aeruginosa [16] and 200 µg/mL (≈ 546 µM) with Aspergillus flavus [19]. Besides, the “inhibition zone (IZ)” value in the test with Pseudomonas aeruginosa [2], with Penicillium [3], with Aspergillus flavus [4], in the test with Aspergillus niger [6], in the test on Fusarium [18] and in the test with Klebsiella pneumoniae [20] was “inactive” in each case. Moreover, the “inhibition zone (IZ)” value in the test on Bacillus subtilis [8], in the test with Rhizopus [10], in the test on Enterococcus faecalis [12] and in the test on Escherichia coli [17] was 12 mm each time.

On to `CC1/C(=N/O)CC(c2ccccc2)N(C)C1c1ccccc1` (stereo not given), for which the MIC amounted to 200 µg/mL (≈ 679 µM) in the test on Penicillium [1]; 200 µg/mL (≈ 679 µM) in the test on Fusarium [5]; 100 µg/mL (≈ 340 µM) with Escherichia coli [7]; 100 µg/mL (≈ 340 µM) in the test with Rhizopus [9]; 100 µg/mL (≈ 340 µM) with Bacillus subtilis [11]; 200 µg/mL (≈ 679 µM) in the test on Klebsiella pneumoniae [13]. For the same molecule, the minimal inhibitory concentration (MIC) in the test with Aspergillus niger [14], with Enterococcus faecalis [15], against Pseudomonas aeruginosa [16] and in the test with Aspergillus flavus [19] was 200 µg/mL (≈ 679 µM) in each case. In addition, the “inhibition zone (IZ)” value with Pseudomonas aeruginosa [2], in the test with Penicillium [3], with Aspergillus flavus [4], in the test on Aspergillus niger [6], in the test with Enterococcus faecalis [12] and in the test on Fusarium [18] was “inactive” in each case. In addition, the “inhibition zone (IZ)” value in the test on Klebsiella pneumoniae [20] is “inactive”. Further, the “inhibition zone (IZ)” value with Bacillus subtilis [8], in the test with Rhizopus [10] and in the test with Escherichia coli [17] was 12 mm in each case.

As to `CCOC(=O)O/N=C1\CC(c2ccccc2)N(C)C(c2ccccc2)C1C(C)C` (stereo not given), the MIC came out at 200 µg/mL (≈ 507 µM) with Penicillium [1]; 200 µg/mL (≈ 507 µM) in the test with Fusarium [5]; 12.5 µg/mL (≈ 31.7 µM) in the test on Escherichia coli [7]; 200 µg/mL (≈ 507 µM) against Rhizopus [9]; 12.5 µg/mL (≈ 31.7 µM) with Bacillus subtilis [11]; 200 µg/mL (≈ 507 µM) against Klebsiella pneumoniae [13]. For the same molecule, the minimum inhibitory concentration (MIC) turned out to be 200 µg/mL (≈ 507 µM) with Aspergillus niger [14], 50 µg/mL (≈ 127 µM) with Enterococcus faecalis [15], 200 µg/mL (≈ 507 µM) in the test with Pseudomonas aeruginosa [16] and 100 µg/mL (≈ 253 µM) with Aspergillus flavus [19]. The “inhibition zone (IZ)” value with Pseudomonas aeruginosa [2], in the test with Penicillium [3], in the test with Aspergillus niger [6], with Rhizopus [10], with Fusarium [18] and in the test on Klebsiella pneumoniae [20] was “inactive” throughout. Also, the “inhibition zone (IZ)” value in the test on Aspergillus flavus [4] was found to be 12 mm; in the test on Bacillus subtilis [8], 12 mm; with Enterococcus faecalis [12], 12 mm; with Escherichia coli [17], 17 mm.

Consider `CN[C@@H]1[C@H](O[C@H]2[C@H](O[C@H]3[C@H](O)[C@@H](O)[C@H](N=C(N)N)[C@@H](O)[C@@H]3N=C(N)N)O[C@@H](C)[C@]2(O)C=O)O[C@@H](CO)[C@H](O)[C@H]1O` [STREPTOMYCIN], for which the “inhibition zone (IZ)” value amounted to 26 mm with Pseudomonas aeruginosa [2]; 28 mm in the test with Bacillus subtilis [8]; 22 mm in the test with Enterococcus faecalis [12]; 28 mm in the test with Escherichia coli [17]; 26 mm with Klebsiella pneumoniae [20]. The MIC was found to be 12.5 µg/mL (≈ 21.5 µM) in the test on Escherichia coli [7]; 12.5 µg/mL (≈ 21.5 µM) against Bacillus subtilis [11]; 25 µg/mL (≈ 43 µM) with Klebsiella pneumoniae [13]; 50 µg/mL (≈ 86 µM) against Enterococcus faecalis [15]; 25 µg/mL (≈ 43 µM) against Pseudomonas aeruginosa [16].

As a reminder, the MIC is the least concentration at which growth counts as inhibited. A higher MIC goes with a need for much substance.

The values above are taken from ChEMBL document CHEMBL2380238, “Synthesis, spectral and antimicrobial evaluation of some novel 1-methyl-3-alkyl-2,6-diphenylpiperidin-4-one oxime carbonates” (2013).
